Source: patent US20150342847A1, “NOVEL DERIVATIVES OF SINAPINIC ACID AND THE COSMETIC OR PHARMACEUTICAL USES THEREOF” (BASF Beauty Care Solutions France SAS, priority 2012, published 2015)

Key:
[1] = DPPH radical scavenger test (acellular); settings: 30 minutes
From the text: Study of the radical scavenger activity of the hydroxytyrosol dihydrosinapate of the invention of formula (IIa) and of the prior-art ferulic acid derivative in an acellular in vitro model, using DPPH.
1,1-Diphenyl-2-picrylhydrazyl, owing to its paramagnetic structure, is able to accept an electron or a hydrogen radical in order to become a stable diamagnetic molecule.
The addition of a compound which provides electrons gives rise to decoloring of the 1,1-diphenyl-2-picrylhydrazyl in a manner proportional to the number of electrons accepted by the radical, and this decoloration can be monitored by measuring the absorbance at 530 nm (OD530).
[…] At the end of the incubation, the radical scavenger activity of the compound under test is evaluated by measuring the absorbance of the solution at 530 nm.
The results are presented as % inhibition of the DPPH radical, in Table 3a).
The radical scavenger activity of the test product is calculated as a percentage, according to the following formula:
100−((OD530 in the presence of the compound under test/OD530 in the absence of compound)×100)

[2] = TBARS test, lipid peroxidation of UVB-irradiated liposomal suspension; settings: UVB 2 hours
Experimental: Study of the radical scavenger activity of the hydroxytyrosol dihydrosinapate of the invention of formula (IIa) and of the prior-art ferulic acid derivative by the TBARS test.
Two identical 96-well plates are produced according to a defined plate plan. 50 μL of a sample mixture prepared by diluting a solution of a test compound or of a negative control (vehicle medium without test compound) or of a positive control (D-L-alpha-tocopherol) to 1/10 in a liposomal suspension are distributed per well, in quadruplicate. One of the two plates is irradiated with UVB for 2 hours. The other plate, serving as a control, is incubated in the absence of light and at ambient temperature for 2 hours.
At the end of irradiation, an amount of 100 μL of 20% trichloroacetic acid solution was added per well, followed by an amount of 34 μL of 1% thiobarbituric acid solution. The plates are then incubated at 105° C. for 25 minutes.
The contents of each well are centrifuged at 5700 rpm for 5 minutes, and then an amount of 100 μL of supernatant was deposited in new plates, according to the same plan, and the absorbance was read off at 530 nm.
The positive experimental control was D-L-alpha-tocopherol, at a concentration of 1%, for which a percentage inhibition of 80% was obtained.

**Q.** Which results are given for `COc1cc(CCC(=O)OCCc2ccc(O)c(O)c2)cc(OC)c1O` [Hydroxytyrosol dihydrosinapate (IIa), hydroxytyrosol dihydrosinapate]?
**A.** % inhibition of the DPPH radical ([1]; 1 μM): 10.7 +/− 0.59%; % inhibition of the DPPH radical ([1]; 5 μM): 59.68 +/− 0.89%; % inhibition of the DPPH radical ([1]; 10 μM): 82.01 +/− 1.05%; % inhibition of the DPPH radical ([1]; 30 μM): 86.68 +/− 0.44%; % inhibition of the DPPH radical ([1]; 50 μM): 88.78 +/− 0.49%; % inhibition of the DPPH radical ([1]; 100 μM): 88.28 +/− 0.56%; % inhibition of the DPPH radical ([1]; 1000 μM): 89.14 +/− 0.40%; % inhibition of lipid peroxidation ([2]; 1 μM after dilution to 1/10th in the liposomal suspension): −10.58%; % inhibition of lipid peroxidation ([2]; 5 μM after dilution to 1/10th in the liposomal suspension): 8.21%; % inhibition of lipid peroxidation ([2]; 30 μM after dilution to 1/10th in the liposomal suspension): 7.14%; % inhibition of lipid peroxidation ([2]; 50 μM after dilution to 1/10th in the liposomal suspension): 19.12%; % inhibition of lipid peroxidation ([2]; 100 μM after dilution to 1/10th in the liposomal suspension): 41.95%; % inhibition of lipid peroxidation ([2]; 1000 μM after dilution to 1/10th in the liposomal suspension): 77.04%
